# Data taken from patent US9617244B2, “Antibacterial quinoline derivatives” (JANSSEN PHARMACEUTICA NV, priority 2012, dated 2017).
# Assays:
# [1] = test system: Mycobacterium smegmatis (ATCC607); assay: In-vitro anti-bacterial activity against strain M. Smegmatis ATCC607; assay type: cell-based; conditions: 90% inhibitory concentration for bacterial growth, Alamar Blue fluorescence; for IC90 MSM 607: 48 hours; for IC90: Mycolicibacterium smegmatis, ATCC607, 48 h, read-out: IC90 MSM 607
# Method in brief: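 Serial five-fold compound dilutions in BSA-supplemented wells, inoculated with ~250 CFU/well in Mueller-Hinton broth, incubated 48 h at 37 °C, 5% CO2. Growth read by Alamar Blue fluorescence (ex 530/em 590 nm); IC90 in μg/ml.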
# [2] = test system: Staphylococcus aureus (ATCC29213); assay: In-vitro anti-bacterial activity, microtitre plate assay, IC90 determination (non-mycobacterial strains); assay type: cell-based; conditions: 90% inhibitory concentration for bacterial growth, resazurin fluorescence; for IC90 STA B29213: 24 hours; for IC90: Staphylococcus aureus, ATCC29213, 24 h, read-out: IC90 STA B29213
# Method in brief: (§1)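 Inoculum of about 100 TCID50 (10–60 CFU/well) in Mueller-Hinton broth, serial five-fold compound dilutions, 24 h at 37 °C in air. Growth read by resazurin fluorescence (ex 530/em 590 nm); IC90 in μg/ml as 90% growth inhibition.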
# [3] = test system: Streptococcus pneumoniae (ATCC6305); assay: as above; assay type: cell-based; conditions: 90% inhibitory concentration for bacterial growth, resazurin fluorescence; for IC90 SPN 6305: 24 hours; for IC90: Streptococcus pneumoniae, ATCC6305, 24 h, read-out: IC90 SPN 6305
# Method in brief: as §1
IC90 MSM 607 [1] [µg/mL],IC90 STA B29213 [2] [µg/mL],IC90 SPN 6305 [3] [µg/mL],melting point [°C],IC90 [3] [µg/mL],IC90 [1] [µg/mL],IC90 [2] [µg/mL],SMILES
2.01,3.18,5.66,–,–,–,–,COc1nc2ccc(SC)cc2cc1C(c1ccc(Cl)cc1)C1(O)CCNC(Cc2ccccc2)C1 (stereo not shown) [Compound 93]
1.42,1.78,6.32,214,–,–,–,COc1nc2ccc(Br)cc2cc1C(c1ccc(SC)cc1)C1(O)CCNC(Cc2ccccc2)C1 (stereo not shown) [Compound 99]
4.07,1.82,–,–,4.56,–,–,O=c1[nH]c2ccc(Br)cc2cc1C(c1cccc(Cl)c1)C1(O)CCNC(Cc2ccccc2)C1 (stereo not shown) [Compound 86]
1.66,2.63,8.32,–,–,–,–,CSc1nc2ccc(Br)cc2cc1C(c1ccc(Cl)cc1)C1(O)CCNC(Cc2ccccc2)C1 (stereo not shown) [Compound 88]
1.01,2.02,4.04,–,–,–,–,COc1nc2ccc(Br)cc2cc1C(c1ccc(Cl)cc1)C1(O)CCNC(Cc2ccc(F)c(F)c2)C1 (stereo not shown) [Compound 113]
–,–,–,–,8,3.18,3.18,COc1nc2ccc(SC)cc2cc1C(c1ccc(Cl)cc1)C1(O)CCNC(Cc2ccccc2)C1 (stereo not shown) [Compound 90]
1.12,1.78,–,–,6.32,–,–,COc1nc2ccc(Br)cc2cc1C(c1ccc(SC)cc1)C1(O)CCNC(Cc2ccccc2)C1 (stereo not shown) [Compound 98]
–,–,–,–,5.52,2.77,3.48,COc1nc2ccc(Br)cc2cc1C(c1ccc(Cl)cc1)C1(O)CCNCC1Cc1ccccc1 (stereo not shown) [Compound 117]
0.98,–,–,–,4.38,–,1.75,COc1nc2ccc(Br)cc2cc1C(c1ccc(Cl)cc1)C1(O)CCNCC1Cc1ccccc1 (stereo not shown) [Compound 114]
3.62,2.88,3.62,–,–,–,–,O=c1[nH]c2ccc(Br)cc2cc1[C@@H](c1ccc(Cl)cc1)[C@]1(O)CCNC(Cc2ccccc2)C1 (stereo partly shown) [Compound 122]
1.59,3.56,6.32,–,–,–,–,COc1nc2ccc(Br)cc2cc1C(c1ccc(SC)cc1)C1(O)CCNC(Cc2ccccc2)C1 (stereo not shown) [Compound 101]
3.76,3.76,–,145,7.5,–,–,COc1nc2ccc(Br)cc2cc1C(c1ccc(S(C)(=O)=O)cc1)C1(O)CCNC(Cc2ccccc2)C1 (stereo not shown) [Compound 102]
1.38,1.74,–,220,6.93,–,–,COc1nc2ccc(-c3cccnc3)cc2cc1C(c1cccc(Cl)c1)C1(O)CCNC(Cc2ccccc2)C1 (stereo not shown) [Compound 15]
–,–,–,106,5.24,0.93,1.17,COc1nc2ccc(Br)cc2cc1C(c1ccc(Cl)cc1)C1(O)CCNC(Cc2ccc(F)c(F)c2)C1 (stereo not shown) [Compound 39]
3.48,3.48,6.95,–,–,–,–,COc1nc2ccc(Br)cc2cc1C(c1ccc(Cl)cc1)C1(O)CCNCC1Cc1ccccc1 (stereo not shown) [Compound 41]
1.64,1.64,4.63,214,–,–,–,COc1nc2ccc(SC)cc2cc1C(c1ccc(Cl)cc1)C1(O)CCNC(Cc2ccccc2)C1 (stereo not shown) [Compound 91]
0.93,1.66,6.60,124,–,–,–,COc1nc2ccc(Br)cc2cc1C(c1ccc(Cl)cc1)C1(O)CCNC(Cc2ccc(F)c(F)c2)C1 (stereo not shown) [Compound 112]
–,–,–,–,3.62,3.62,3.62,O=c1[nH]c2ccc(Br)cc2cc1[C@@H](c1ccc(Cl)cc1)[C@]1(O)CCNC(Cc2ccccc2)C1 (stereo partly shown) [Compound 121]
1.76,3.13,–,–,4.95,–,–,COc1nc2ccc(Cl)cc2cc1C(c1ccc(Cl)cc1)C1(O)CCNC(Cc2ccccc2)C1 (stereo not shown) [Compound 94]
–,–,–,–,6.83,1.93,3.42,O=c1[nH]c2ccc(Br)cc2cc1C(c1ccc(Cl)cc1)C1(O)CCNC(Cc2ccc(F)c(F)c2)C1 (stereo not shown) [Compound 40]
–,–,–,–,4.37,2.19,2.76,COc1nc2ccc(Br)cc2cc1C(c1cccc(Cl)c1)C1(O)CCNC(Cc2ccccc2)C1 (stereo not shown) [Compound 35]
3.48,3.48,–,130,6.94,–,–,COc1nc2ccc(S(C)(=O)=O)cc2cc1C(c1ccc(Cl)cc1)C1(O)CCNC(Cc2ccccc2)C1 (stereo not shown) [Compound 38]
1.64,1.64,6.54,114,–,–,–,COc1nc2ccc(SC)cc2cc1C(c1ccc(Cl)cc1)C1(O)CCNC(Cc2ccccc2)C1 (stereo not shown) [Compound 92]
1.72,3.42,6.83,153,–,–,–,COc1nc2ccc(Br)cc2cc1C(c1ccc(C#N)cc1)C1(O)CCNC(Cc2ccccc2)C1 (stereo not shown) [Compound 116]
–,–,–,–,4.16,2.08,3.3,COc1nc2ccc(Br)cc2cc1C(c1ccc(C#N)cc1)C1(O)CCNC(Cc2ccccc2)C1 (stereo not shown) [Compound 115]
–,–,–,162,–,4.77,8.48,COc1nc2ccc(F)cc2cc1C(c1ccc(Cl)cc1)C1(O)CCN(C(C)c2ccccc2)C(CO)C1 (stereo not shown) [Compound 13]
2.85,3.58,–,227,7.15,–,–,CSc1nc2ccc(Br)cc2cc1C(c1ccc(Cl)cc1)C1(O)CCNC(Cc2ccccc2)C1 (stereo not shown) [Compound 87]
1.80,3.59,–,145,–,–,–,COc1nc2ccc(S(C)(=O)=O)cc2cc1C(c1cccc(Cl)c1)C1(O)CCNC(c2ccc(F)cc2C)C1 (stereo not shown) [Compound 46]
1.59,1.59,–,138,–,–,–,COc1nc2ccc(SC)cc2cc1C(c1ccccc1)C1(O)CCNC(c2ccc(F)cc2C)C1 (stereo not shown) [Compound 197]
1.40,1.76,–,168,–,–,–,COc1nc2ccc(Br)cc2cc1C(c1ccc(Cl)cc1)C1(O)CCNC(CC2CCCCC2)C1 (stereo not shown) [Compound 259]
